Experimental data reported in patent publication US9540418B2, “Polypeptide specifically binding to rare earth nanoparticles and use thereof” (University of Science and Technology of China, priority 2012, dated 2017).

Key:
[1] = Competitive inhibition of REOB-1 phage binding to Nd2O3 by polypeptides (IC50); conditions: 100 μg Nd2O3, REOB-1 phages at a titer of 108, 2 hr incubation; read-out: IC50 (μM)* of polypeptides competitively inhibiting the binding of REOB-1 phages to Nd2O3 nanoparticles
Experimental: 100 μg Nd2O3 was mixed with the polypeptides, RE-1, AP-1, RE-2, RE-3, RE-4, RE-5, RE-6, RE-7, RE-8, RE-9, RE-10, etc., respectively. To the mixture, REOB-1 phages at a titer of 108 were added. After 2 hr of incubation, the number of REOB-1 phages binding to Nd2O3 was measured. IC50 value indicated the relative activity of various polypeptides competitively inhibiting the binding of REOB-1 phages to Nd2O3 nanoparticles. The polypeptide RE-1 and its analogues had different binding ability to Nd2O3.

[2] = Inhibition of the binding of REOB-1 to Nd2O3 by RE-1 short peptide at various concentrations
Experimental: RE-1 short peptides at various concentrations (0 μg/mL, 1 μg/mL, 10 μg/mL, 50 μg/mL, 100 μg/mL, and 500 μg/mL) were incubated with 100 μL Nd2O3 (1 mg/mL) comprising REOB-1 phages at a titer of 10^8 at 37° C. for 2 hr. The resulting precipitate was washed 10 times. The phages binding to Nd2O3 were recovered. 5000 μg/mL of AP-1 short peptide was treated according to the same procedure as described above, as a control.

[3] = Sedimentation / suspension time-dynamics curve of UCN (UV 500 nm); type: physicochemical; conditions: standing for 120 min; UCN with or without RE-1 coating
Experimental: (§1) 3 mg of UCN was mixed with 1.5 mg of RE-1 or its analogues RE-2, RE-3, or RE-5 as well as PEG, and the binding between them was performed according to a binding method. The excess and unbound RE-1 was washed off. The resultant precipitate was resuspended in 3 mL water, sonicated for 1 min, and then placed into a UV detection cell (X72053, Alpha Laboratories Ltd, UK). Observation was made using a UV spectrophotometer (DU-640, Beckman, USA) at an absorption wavelength of 500 nm for 120 min to obtain a time-dynamics curve.

[4] = Sedimentation / suspension time-dynamics curve of UCP (UV 500 nm); type: physicochemical; conditions: standing for 120 min; UCP with or without RE-1 coating
Experimental: as §1
The process described above was repeated except that 3 mg UCP and 500 μg RE-1 or its analogues RE-2, RE-3, RE-4, RE-5, RE-6, RE-7, RE-8, RE-9, or RE-10 and AP-1 were used. A time-dynamics curve was obtained.

HeLa cells = test: Diffusibility / adherence on coverslip with cells facing upward or downward; type: cell-based
Experimental: HeLa cells were cultured on a coverslip (22 mm×22 mm), which was then placed into a 6-well plate with the cells facing upward or downward, and the coverslip was supported by a sterilized glass cube (2 mm×2 mm×2 mm). Then, 4 mL DMEM medium (Gibco) containing the rare-earth upconversion nanophosphors (UCN, UCP) with or without RE-1 coating was slowly poured into the 6-well plate, such that the cells were fully immersed in the medium, and the coverslip is just located at the middle of the height of the liquid. The cells were placed into a cell incubator at 37° C. for 2 hr, and then washed with PBS 3 times. The UCNs adhered to the surfaces of the cells were observed under a fluorescence microscope (Olympus IX71, Olympus, Japan) equipped with a 980-nm infrared laser (MDL-980 nm 1 W, Changchun New Industries Optoelectronics Tech. Co., Ltd, China).

HeLa-LC3 cells = test: RE-1 analogues blocking nanophosphor-induced autophagy (LC3 aggregates and vacuoles); type: cell-based
Experimental: UCN and UCP coated with RE-1 analogues RE-2, RE-3, or RE-5 were prepared as follows: 50 μg or 10 μg RE-1 analogues RE-2, RE-3, or RE-5 was mixed with 100 μg UCN or UCP, respectively, incubated at 37° C. for 2 hr, centrifuged at 12000 rpm, and then washed with water 3 times to remove the excess and unbound peptides. The resultant precipitate was resuspended in 100 μL water.
HeLa-LC3 cells were inoculated into a 96-well cell culture plate at a density of about 1-2×10^4 cells/well, and cultured overnight for further use. At first, the medium was replaced with fresh DMEM medium, and then 100 μg/mL UCN, UCN+RE-1, UCN+RE-2, UCN+RE-3, or UCN+RE-5 was added. An equal volume of PBS was used as blank. A mixture of 100 μg/mL UCN and 10 mg/mL PEG was used as negative control. A mixture of 100 mM trehalose and 50 μg RE-1 was used as positive control. After culturing for 24 hr, a fluorescence microscope was used to observe, image, and count.
HeLa-LC3 cells were inoculated into a 96-well cell culture plate at a density of about 1-2×10^4 cells/well, and cultured overnight for further use. At first, the medium was replaced with fresh DMEM medium, and then 100 μg/mL UCP, UCP+RE-1, UCP+RE-2, UCP+RE-3, or UCP+RE-5 was added. An equal volume of PBS was used as blank. After culturing for 24 hr, a fluorescence microscope was used to observe, image, and count.
The ability to induce cell autophagy was estimated by determining the numbers of LC3 aggregates and vacuoles.

mice liver = test: Liver damage in mice livers (HE staining); type: in vivo, Balb/c mice; conditions: UCP+RE-1 or UCP+AP-1, tail vein, 24 hr
Experimental: Balb/c mice (purchased from SLAC Laboratory Animal (Shanghai, China), 6 weeks old, and weighed 20 g when used) were bred in a sterile housing, and then 300 μg (dosage: 15 mg/kg) UCN, UCN+PEG (containing 10 mg PEG), UCN+RE-1, UCP, UCP+RE-1, or UCP+AP-1 was injected through tail vein. An equal volume of normal saline was injected as a control. After 24 hr, the livers of the mice were removed and subjected to western blotting assay.
The mice livers obtained as described in Example 21 were in situ fixed with 2.5% glutaral-dimethyl arsine buffer (pH 7.4) at 4° C. for 1 hr, then fixed with 2% osmium tetroxide at room temperature for 1 hr, and then dehydrated with ethanol gradients. Then, the cell samples were embedded in paraffin. The embedded cell samples were cut into ultrathin slices, which were stained with HE (hematoxylin-eosin), and observed and imaged under fluorescence microscope.

Sequence: ACTARSPWICG [RE-1, RE-0 with terminal amino acids A and G added]
- IC50 [1]: 3.01 ± 0.14 µM
- dependence of inhibition of REOB-1 binding to Nd2O3 on RE-1 concentration ([2]; 0-500 μg/mL RE-1): concentration-dependent
- inhibition of the binding of REOB-1 to Nd2O3 ([2]; RE-1 concentration greater than 10 μg/mL, REOB-1 titer 10^8, 37° C., 2 hr): nearly completely inhibited
- suspension / sedimentation of UCN in water [3]: still in suspension
- suspension / sedimentation of UCP in water [4]: still in suspension
- amount of nanophosphors (UCN, UCP) coated with RE-1 adhered to the cell surfaces (HeLa cells; cell-facing-upward group, 37° C., 2 hr): significantly reduced
- diffusibility of the rare-earth upconversion nanophosphors (UCN, UCP) in solution (HeLa cells; cells facing upward versus downward): reduced the diffusibility
- rank of ability after coating UCN to inhibit cell autophagy induced by UCN (HeLa-LC3 cells; 100 μg/mL, 24 hr): RE-1>RE-3>RE-5
- inhibition of cell autophagy induced by Tre (trehalose) (HeLa-LC3 cells; mixture of 100 mM trehalose and 50 μg RE-1): had no inhibition
- effect of coating on liver damage induced by UCP (mice liver): significantly reduced the level of the damages to livers
